Assay results reported in publication PMC8581430, “Peptide ligands targeting FGF receptors promote recovery from dorsal root crush injury via AKT/mTOR signaling” (Theranostics, 2021).

System: mTOR (phosphorylated) in DRG explants
Experiment: Western blot of phosphorylated mTOR in DRG explants
Type: cell-based, rat
Conditions: CH02 20 μM + inhibitor 2 μM, 4 h, n = 3
Description: Figure 7 CH02-stimulated activation of AKT/mTOR signaling is required for growth potential augmentation of axons. (A) Immunoblot analysis showing phosphorylated mTOR expression in C5-T1 DRGs subjected to dorsal root injury followed by CH02 treatment (20 μM). DRG samples were collected 3 days post-treatment. (B) Quantification of p-mTOR expression levels in A. n = 3 independent experiments. Relative protein expression levels were quantified after normalization to mTOR. Values are means ± SEM. (C) Immunoblot showing phosphorylated mTOR expression in DRG explants pretreated with DMSO (control), CH02 (20 μM), CH02+AKTi (2 μM) or CH02+ U0126 (2 μM) for 4 h. (D) Quantification of the p-mTOR expression from C. n = 3 independent experiments. Relative protein expression levels were quantified after normalization to mTOR. […] The axon is shown in fluorescence (β3-tubulin) images. […] (F) Quantification of the longest axon length of each neuron from (E) (n = 62 for each condition; *Control vs. CH02, CH02+Torin1, Torin1; # CH02 vs. CH02+Torin1; **p < 0.01, ****p < 0.0001, #p < 0.05 by one-way ANOVA with Dunnett's test; ns, not significant; mean ± SD). […] (H) Quantification of axon growth in DRG explants from (G) using Neurite-J software (n = 4 for each condition; *control vs. CH02, CH02+Torin1, Torin1; *p < 0.05, **p < 0.01, ***p < 0.001, ****p < 0.0001 by two-way ANOVA with Dunnett's test; mean ± SEM). […]

Structure (SMILES): N#CC(=C(/N)Sc1ccccc1N)/C(C#N)=C(/N)Sc1ccccc1N [U0126]
- effect of inhibitor on CH02-induced phosphorylated mTOR: had little effect
